tested on: proMMP13 production by SW1353 cells; test: Production of MMP13 (proMMP13 ELISA) by SW1353 cells upon stimulation with collagen type II; format: cell-based; conditions: Homo sapiens, 72 h; SW1353 cells, 40 μg/mL collagen type II, three days; read-out: IC50 [pro-MMP13]
Protocol: The binding of Collagen type II to the DDR2 receptor of the SW1353 cells initiate a signalling cascade resulting in the increase of MMP13 expression. MMP13 is released in the culture medium in its pro-form, the proMMP13 which can be measured with an ELISA.
DDR2 inhibitors are evaluated for their ability to block this signalling cascade and therefore proMMP13 production upon collagen stimulation.
SW1353 cells (ATCC, HTB-94), conserved in liquid nitrogen, are thawed and cultivated at 1.6.10^6 cells in a T75 in RPMI1640 supplemented with 2 mM Glutamin, 1 mM Na-Pyruvate, 10% FCS, at 37° C., 5% CO2 for three days. SW1353 cells are then harvested with trypsin/EDTA and resuspended in RPMI1640 supplemented with 2 mM Glutamin, 1 mM Na-Pyruvate, 25 mM HEPES and 0.5% FCS (assay medium) and inoculated in a 96 well plate at 30 000 cells/well in 100 μL of the assay medium and further incubated 24 hours at 37°, 5% CO2 to enable cell adhesion. For stimulation of the DDR2 receptor, 50 μL of a collagen type II solution 160 μg/mL (final concentration in the well is 40 μg/mL) will be added in each well as well as 50 μL of the different dilutions of the inhibitors (MSCs) from 0.003 μM to 10 μM (final concentration in the plate). Each condition is performed in four-plicates. After three additional days of culture, the supernatant will be harvested for proMMP13 measurement.
The Different Controls Present on Each Plate are Composed of Assay Medium with: Positive control (with the reference compound): 40 μg/mL Collagen type II, 0.03 μM Dasatinib (reference compound) in 0.1% DMSO Negative control (no inhibition): 40 μg/mL Collagen type II and 0.1% DMSO Medium control (no stimulation): 0.005% Acetic acid and 0.1% DMSO All wells contains 0.1% DMSO and 0.005% acetic acid.
The solutions needed are: • Collagen type II is diluted at 2 mg/mL in 0.25% acetic acid. This stock solution can be stored at 4° C. for a week and is diluted 1/12.5 in the assay medium (to obtain 160 μg/mL in 0.02% acetic acid) before being used in the assay. • MSCs from 0.012 to 40 μM in assay medium with 0.4% DMSO (they are then further diluted ¼ in the assay plate) • Dasatinib 0.12 μM in assay medium with 0.4% DMSO (it is then further diluted ¼ in the assay plate) • Acetic acid 0.02% in assay medium (control).
The harvested supernatants are either directly used or stored at −20° C. until use. ProMMP13 is measured with a commercial ELISA kit, according the recommendation of the manufacturer (see Annex). Briefly, 50 μL of each samples are used undiluted and the standard curve is realised in the assay medium. At the end of the assay the ELISA plate is read on a Paradigm MTP-Reader (Beckman Coulter) at 540 (reference wavelength) and 450 nm. All the absorbance values obtained at 450 nm are corrected with the absorbance at 540 nm and a ‘Four Parameter Fit’ is used to establish the standard curve. From the standard curve the concentrations of proMMP13 in all the samples are calculated. All the calculations are realised by the Paradigm software.
The data reported in the database are the % effect of the compounds at the two highest concentrations (10 and 3 μM) as well as the IC50.
% effect at the two highest concentrations is calculated according to the formula: […]
The IC50s are calculated with the software Graph Pad Prism (see tables in Example 1).

| Compound | IC50 |
| --- | --- |
| CNC(=O)c1cc(Oc2ccc(CNC(=O)Nc3cc(C(F)(F)F)cn(C)c3=O)cc2C)ccn1 [compound 7] | 32.9 nM |
| COc1ncc(C)cc1NC(=O)NCc1ccc(Oc2ccncc2)cc1 [compound 18] | 733 nM |
| CNC(=O)c1cc(Oc2ccc(CNC(=O)Nc3cc(Cl)cnc3OC)cc2)ccn1 [compound 21] | 69 nM |
| Cc1cc(Oc2ccc(CNC(=O)Nc3cc(C(F)(F)F)cnc3Cl)cc2C)ccn1 [compound 30] | 960 nM |

Continued, values first:

| IC50 | Compound |
| --- | --- |
| 348 nM | COc1ncc(Cl)cc1NC(=O)NCc1ccc(Oc2ccnc(C)c2)c(C)c1 [compound 28] |
| 258 nM | Cc1cc(Oc2ccc(CNC(=O)Nc3cc(C(F)(F)F)cn(C)c3=O)cc2C)ccn1 [compound 6] |
| 155 nM | CNC(=O)c1cc(Oc2ccc(CNC(=O)Nc3cc(C)cnc3OC)cc2)ccn1 [compound 19] |
| 45.4 nM | CNC(=O)c1cc(Oc2ccc(CNC(=O)Nc3cc(Cl)cnc3OC)cc2C)ccn1 [compound 23] |
| 42.4 nM | CNC(=O)c1cc(Oc2ccc(CNC(=O)Nc3cc(C(F)(F)F)cnc3Cl)cc2C)ccn1 [compound 26] |

same assay, conditions: Homo sapiens, SW1353, 72 h, read-out: IC50 [pro-MMP13]

| Compound | IC50 |
| --- | --- |
| CNC(=O)c1cc(Oc2ccc(CNC(=O)Nc3cc(C(F)(F)F)cn(C)c3=O)cc2)ccn1 [compound 8] | 14.8 nM |

Source: US20150225369A1, “DDR2 INHIBITORS FOR THE TREATMENT OF OSTEOARTHRITIS” (Merck Patent GmbH, priority 2012, published 2015)
